The record followed here is patent US20260285853A1, “COMPOUNDS AND METHODS FOR MODULATING SPLICING” (REMIX THERAPEUTICS INC., priority 2023, published 2026).

Format in all cases: cell-based
Assay [1] concerns HTT mRNA. The assay is described as follows: Splicing RT-qPCR assay (THP), Table 2A. The note with it: Table 2A (THP); for AC50: AJ mRNA increase, read-out: HTT AJ (increase in alternative junction mRNA, AC50); for IC50: CJ mRNA decrease, read-out: HTT CJ (decrease in canonical junction mRNA, IC50).
In assay [2] the test system is MYB mRNA. Put plainly: Splicing RT-qPCR assay (THP), Table 2A. The note with it: Table 2A (THP); for AC50: AJ mRNA increase, read-out: MYB AJ (increase in alternative junction mRNA, AC50); for IC50: CJ mRNA decrease, read-out: MYB CJ (decrease in canonical junction mRNA, IC50).
The subject of assay [3] is HTT mRNA. The assay is described as follows: Gene panel canonical junction qPCR assay, decrease in CJ mRNA, Table 3. The note with it: decrease in canonical junction (CJ) mRNA, gene panel qPCR, Table 3. The procedure, abridged: (§1)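 Canonical exon-junction (CJ) transcript measured by 5′ nuclease RT-qPCR, normalized to GAPDH, GUSB or PPIA and to DMSO control (2^(−ΔΔCt)). A673 or K562 cells treated 24 h at 37° C with an 11-point 3-fold dilution series, top 10 uM, DMSO ≤0.25%. IC50 from 4-parameter logistic fit of percentage CJ decrease.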

For assay [4], the system named is MYB mRNA. Described as above. The note with it: decrease in canonical junction (CJ) mRNA, gene panel qPCR, Table 3. The gist of the method:
as §1

In assay [5] the test system is SH-SY5Y (human neuroblastoma) cells. Put plainly: Cell viability, Cell Titer Glo 2.0 assay. The note with it: read-out: Viability SHSY5Y.3 GI50. The gist of the method: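 SH-SY5Y cells were exposed to serially diluted compounds in IMDM with 10% FBS and 0.1% DMSO for 72 hours at 37° C., 5% CO2. Viability was measured by CellTiter-Glo 2.0 luminescence, with medium-only wells as blank.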

`CCNC1CCN(c2cc(F)c(C(=O)Nc3nc4c(C)nc(C)cc4o3)c3nn(C)cc23)CC1` [Compound 380, N-(4,6-dimethyl-oxazolo-[4,5-c]-pyridin-2-y1)-4-[4-(ethylamino)-1-piperidy1]-6-fluoro-2-methyl-indazole-7-carboxamide]: the AC50 with HTT mRNA [1] is more than 10000 nM; in the assay on MYB mRNA [2] it was 1000 to 10000 nM. The half-maximal inhibitory concentration (IC50) in the assay with HTT mRNA [1] is more than 10000 nM; in the assay on MYB mRNA [2] it was 1000 to 10000 nM; in the assay on HTT mRNA [3], more than 10000 nM; in the assay on MYB mRNA [4] it was 1000 to 10000 nM. Moreover, the concentration for 50% growth inhibition (GI50) in assay [5] is more than 10000 nM.

For the compound `CCNC1CCN(c2cc(F)c(C(=O)Nc3cn4ccncc4n3)c3nn(C)cc23)CC1` [Compound 381, 4-[4-(ethylamino)-1-piper-idyl]-6-fluoro-N-imidazo [1,2-a]-pyrazin-2-yl-2-methyl-indazole-7-carboxamide], the half-maximal activity concentration (AC50) in the assay with HTT mRNA [1] and with MYB mRNA [2] was 1000 to 10000 nM in each case. The IC50 with HTT mRNA [1], in the assay with MYB mRNA [2], with HTT mRNA [3] and with MYB mRNA [4] was 1000 to 10000 nM throughout. Moreover, the GI50 in assay [5] lay in the range of 1000 to 10000 nM.

As for `Cc1cn2cc(NC(=O)c3c(F)cc(N4CCC(NC5CC5)CC4)c4cn(C)nc34)c(OC3CC3)c(F)c2n1` [Compound 382, N-[7-(cyclopropoxy)-8-fluoro-2-methyl-imidazo [1,2-a]-pyridin-6-yl]-4-[4-(cyclopropylamino)-1-piperidyl]-6-fluoro-2-methyl-indazole-7-carboxamide], the AC50 with HTT mRNA [1] and in the assay on MYB mRNA [2] was less than 100 nM each time. The IC50 in the assay on HTT mRNA [1], in the assay on MYB mRNA [2], in the assay with HTT mRNA [3] and in the assay on MYB mRNA [4] was less than 100 nM each time. For the same compound, the concentration for 50% growth inhibition (GI50) in assay [5] is less than 100 nM.

For `CCNC1CCN(c2cc(F)c(C(=O)Nc3cn4cc(CF)nc(C)c4n3)c3nn(C)cc23)CC1` [Compound 383, 4-(4-(ethylamino)piperidin-1-yl)-6-fluoro-N-(6-(fluoromethyl)-8-methylimidazo[1,2-a]-pyrazin-2-yl)-2-methyl-2H-indazole-7-carboxamide 2,2,2-trifluoroacetate], the AC50 in the assay on HTT mRNA [1] was 100 to 1000 nM; in the assay with MYB mRNA [2], less than 100 nM. Further, the half-inhibitory concentration (IC50) in the assay on HTT mRNA [1] is more than 10000 nM; in the assay on MYB mRNA [2] it was less than 100 nM; in the assay with HTT mRNA [3], more than 10000 nM; in the assay with MYB mRNA [4], less than 100 nM. For the same compound, in assay [5], the concentration for 50% growth inhibition (GI50) was in the range of 1000 to 10000 nM.

As to `CCNC1CCN(c2cc(F)c(C(=O)Nc3cn4ccnc(C)c4n3)c3nn(C)cc23)CC1` [Compound 384, 4-[4-(ethylamino)-1-piperidyl]-6-fluoro-2-methyl-N-(8-methyl-imidazo[1,2-a]-pyrazin-2-yl)-indazole-7-carbox-amide], the AC50 in the assay on HTT mRNA [1] and in the assay on MYB mRNA [2] was more than 10000 nM in each case. For the same compound, the IC50 in the assay on HTT mRNA [1], with MYB mRNA [2], in the assay with HTT mRNA [3] and in the assay on MYB mRNA [4] was more than 10000 nM each time. In addition, in assay [5], the GI50 is more than 10000 nM.

As to `CCNC1CCN(c2ccc(C(=O)Nc3cc(OC)c4nc(C)sc4c3)c3nn(C)cc23)CC1` [Compound 385, 4-[4-(ethylamino)-1-piperidyl]-N-(4-methoxy-2-methyl-1,3-benzothiazol-6-yl)-2-methyl-indazole-7-carboxamide 2,2,2-trifluoroacetate], the half-maximal activity concentration (AC50) lay in the range of 1000 to 10000 nM in the assay with HTT mRNA [1] and 100 to 1000 nM in the assay with MYB mRNA [2]. Moreover, the 50% inhibitory concentration (IC50) in the assay with HTT mRNA [1], in the assay on MYB mRNA [2], in the assay with HTT mRNA [3] and in the assay on MYB mRNA [4] was more than 10000 nM throughout. In addition, the GI50 in assay [5] lay in the range of 1000 to 10000 nM.

For the compound `Cc1cn2cc(NC(=O)c3c(F)cc(N4CCC(NC5CC5)CC4)c4cn(C)nc34)cc(Oc3ccnnc3)c2n1` [Compound 386, 4-[4-(cyclopropylamino)-1-piperidyl]-6-fluoro-2-methyl-N-(2-methyl-8-pyridazin-4-yloxy-imidazo-[1,2-a]-pyridin-6-yl)indazole-7-carboxamide], the concentration at half-maximal activity (AC50) with HTT mRNA [1] was in the range of 1000 to 10000 nM; in the assay on MYB mRNA [2], 100 to 1000 nM. The half-inhibitory concentration (IC50) in the assay with HTT mRNA [1] is more than 10000 nM; in the assay with MYB mRNA [2], 100 to 1000 nM; in the assay with HTT mRNA [3], more than 10000 nM; in the assay on MYB mRNA [4] it was 100 to 1000 nM. In addition, the concentration for 50% growth inhibition (GI50) in assay [5] was more than 10000 nM.

For the compound `CCNC1CCN(c2cc(F)c(C(=O)Nc3cc4cn(C)nc4cc3OC)c3nn(C)cc23)CC1` [Compound 387, 4-[4-(ethyl-amino)-1-piperidyl]-6-fluoro-N-(6-methoxy-2-methyl-indazol-5-yl)-2-methyl-indazole-7-carboxamide], the concentration at half-maximal activity (AC50) is 100 to 1000 nM with HTT mRNA [1] and less than 100 nM with MYB mRNA [2]. Besides, the IC50 in the assay with HTT mRNA [1] was 100 to 1000 nM; in the assay on MYB mRNA [2], less than 100 nM; in the assay with HTT mRNA [3] it was 100 to 1000 nM; with MYB mRNA [4], less than 100 nM. Further, the GI50 in assay [5] fell in the range of 1000 to 10000 nM.

Turning to `CCNC1CCN(c2ccc(C(=O)Nc3cc4cn(C)nc4cc3OC)c3nn(C)cc23)CC1` [Compound 388, 4-[4-(ethylamino)-1-piperidyl]-N-(6-methoxy-2-methyl-indazol-5-yl)-2-methyl-indazole-7-carboxamide], the figures for the half-maximal activity concentration (AC50) with HTT mRNA [1] and with MYB mRNA [2] were 1000 to 10000 nM and 100 to 1000 nM, respectively. Further, the IC50 in the assay on HTT mRNA [1] was in the range of 1000 to 10000 nM; with MYB mRNA [2], 100 to 1000 nM; in the assay on HTT mRNA [3], 1000 to 10000 nM; in the assay with MYB mRNA [4], 100 to 1000 nM. The concentration for 50% growth inhibition (GI50) in assay [5] is 1000 to 10000 nM.

As for `COc1c(NC(=O)c2c(F)cc(N3CCC(NC45CC(C4)C5)CC3)c3cn(C)nc23)cn2cc(C)nc2c1F` [Compound 389, 4-[4-(1-bicyclo[1.1.1]pentanylamino)-1-piperidyl]-6-fluoro-N-(8-fluoro-7-methoxy-2-methylimidazo-[1,2-a]pyridin-6-yl)-2-methyl-indazole-7-carboxamide], the half-maximal activity concentration (AC50) is 100 to 1000 nM in the assay with HTT mRNA [1] and less than 100 nM in the assay on MYB mRNA [2]. Besides, the IC50 with HTT mRNA [1] is 100 to 1000 nM; in the assay on MYB mRNA [2] it was less than 100 nM; with HTT mRNA [3] it was 100 to 1000 nM; with MYB mRNA [4] it was less than 100 nM. The GI50 in assay [5] is less than 100 nM.

With `CCNC1CCN(c2cc(F)c(C(=O)Nc3cn4cc(C)nc(C#N)c4n3)c3nn(C)cc23)CC1` [Compound 390, N-(8-cyano-6-methyl-imidazo[1,2-a]pyrazin-2-yl)-4-[4-(ethylamino)-1-piperidyl]-6-fluoro-2-methyl-indazole-7-carboxamide], the concentration at half-maximal activity (AC50) was more than 10000 nM in the assay on HTT mRNA [1] and less than 100 nM in the assay on MYB mRNA [2]. Further, the IC50 in the assay on HTT mRNA [1] was more than 10000 nM; with MYB mRNA [2] it was 100 to 1000 nM; with HTT mRNA [3], more than 10000 nM; in the assay with MYB mRNA [4] it was 100 to 1000 nM. For the same compound, the GI50 in assay [5] was 1000 to 10000 nM.

Take `CCNC1CCN(c2cc(F)c(C(=O)Nc3cn4cc(C)nc(Cl)c4n3)c3nn(C)cc23)CC1` [Compound 391, N-(8-chloro-6-methyl-imidazo[1,2-a]-pyrazin-2-yl)-4-[4-(ethylamino)-1-piperidyl]-6-fluoro-2-methyl-indazole-7-carboxamide]: the figures for the AC50 with HTT mRNA [1] and in the assay with MYB mRNA [2] were more than 10000 nM and less than 100 nM, respectively. Also, the IC50 in the assay with HTT mRNA [1] was more than 10000 nM; with MYB mRNA [2], less than 100 nM; with HTT mRNA [3], more than 10000 nM; with MYB mRNA [4], less than 100 nM. Also, the GI50 in assay [5] is 100 to 1000 nM.

In the case of `Cc1cn2cc(NC(=O)c3c(F)cc(N4CCC(NC5CC5)CC4)c4cn(C)nc34)nc2c(CN)n1` [Compound 392, N-[8-(aminomethyl)-6-methyl-imidazo[1,2-a]-pyrazin-2-yl]-4-[4-(cyclopropylamino)-1-piperidyl]-6-fluoro-2-methyl-indazole-7-carboxamide], the concentration at half-maximal activity (AC50) is more than 10000 nM in the assay on HTT mRNA [1] and 1000 to 10000 nM in the assay on MYB mRNA [2]. Also, the IC50 is more than 10000 nM with HTT mRNA [1], 1000 to 10000 nM in the assay on MYB mRNA [2], more than 10000 nM with HTT mRNA [3] and 1000 to 10000 nM in the assay with MYB mRNA [4]. The GI50 in assay [5] was more than 10000 nM.
